For orientation: IC80 means the concentration needed for an effect of 80%. Read a high IC80 as a need for much substance.

Data set [1] deals with patients of solid cancers. Kind of data set: Phase I-equivalent test in cancer patients, once every three weeks: 24-hour continuous vs rapid intravenous administration, neurotoxicity occurrence and therapeutic effect (RECIST). The format is in vivo, human. Here is the method:
A group of cancer patients was repeatedly subjected to a course including a 24-hour continuous intravenous administration once every three weeks at a dose of 2.80 to 8.56 mg/m^2 as reduced to ECyd for each administration. Another group of cancer patients was repeatedly subjected to a course including a rapid intravenous administration once every three weeks at a dose of 2.81 to 9.46 mg/m^2 as reduced to ECyd. In both cases, the neurotoxicity occurrence and the therapeutic effect by ECyd were investigated.
(§1) The above test is equivalent to the phase I clinical trial, which is performed mainly for evaluating safety of the tested drug and determining the recommended dose (RD) of the drug, which ensures safety of the drug without adverse effects in the phase II clinical trial carried out with respect to the target cancer. The test is carried out for patients of solid cancers (e.g., gastrointestinal cancers, head and neck cancer, and breast cancer) which cannot be cured by a standard therapeutic method or to which no effective method is applicable. When the test is performed, if possible, the therapeutic effect on the target tumor is assessed. In the following examples, the therapeutic effect on the target tumor was assessed in accordance with the RECIST method (see Journal of the National Cancer Institute, 2000, Vol. 92, No. 3, p. 205 to 216). The effect of ECyd on shrinkage of the tumor was confirmed generally from a target lesion (a lesion having a size equal to or greater than the measurable size depending on the slice width obtained through CT or similar means) and the non-target lesions (all lesions other than the target lesion). […] PD (progressive disease) refers to a state in which the sum of the longer diameters of target lesions was increased by 20% or more as compared with the minimum sum of the longer diameters recorded after start of the test, or a state in which clear exacerbation in the non-target lesions or a new lesion was observed. SD (stable disease) refers to a state in which the degree of tumor shrinkage cannot be evaluated as PR and which cannot be evaluated as PD, and in which the tumor progress has stopped and no exacerbation was observed. MR (minor response) refers to a case in which a certain tumor shrinkage degree of about 15% was maintained (although it was less than 30%), or in which a therapeutic effect corresponding to PR is temporarily observed.

The subject of data set [2] is patients of solid cancers. The experiment in a line: Test in cancer patients, 4-hour continuous vs rapid intravenous administration, neurotoxicity occurrence and therapeutic effect. In kind it is in vivo, human. The method, then: as §1
A course including a 4-hour continuous intravenous administration once every three weeks out of a continuous four-week period at a dose of 1.30 mg/m^2 as reduced to ECyd for each administration was repeatedly performed. Also, a course including a rapid intravenous administration once every three weeks out of a continuous four-week period at a dose of 1.32 mg/m^2 as reduced to ECyd was repeatedly performed. In both cases, the neurotoxicity occurrence and the therapeutic effect by ECyd were investigated. In Example 2, selection of the patients and the method and ratings of evaluation were the same as employed in Example 1.

The subject of data set [3] is neural-crest-derived rat adrenal medulla chromaffin cells (PC12 strain). The experiment in a line: Effect of ECyd contact schedule on growth inhibition of PC12 cells (Crystal Violet staining, constant AUC). In kind it is cell-based. The conditions noted are these: for growth of PC12 cells after ECyd contact: constant AUC. Here is the method:
The effects of the ECyd contact schedule on growth inhibition of neural-crest-derived rat adrenal medulla chromaffin cells (PC12 strain) were investigated.
The experiment of Example 3 was performed at a constant AUC (product of contact time and ECyd concentration). Specifically, in each tested regimen, AUC was maintained at such a level that the ECyd concentration was adjusted to provide IC80 (0.08 μM) as a result of contact between ECyd and the PC12 cells for 100 hours. In each tested regimen, PC12 cells were seeded on a plate and treated with ECyd. Subsequently, the cell culture liquid was exchanged. The profile of cell growth thereafter was obtained through staining with Crystal Violet.

The subject of data set [4] is human lung tumor cells (A549 strain). The experiment in a line: Effect of ECyd contact schedule on growth inhibition of A549 cells (Crystal Violet staining, constant AUC). The format is cell-based. Here is the method:
The effects of the ECyd contact schedule on growth inhibition of human lung tumor cells (A549 strain) were investigated.
The experiment of Example 4 was performed at a constant AUC (product of contact time and ECyd concentration). Specifically, in each tested regimen, AUC was maintained at such a level that the ECyd concentration was adjusted to provide IC80 (0.08 μM) as a result of contact between ECyd and the A549 cells for 100 hours. In each tested regimen, A549 cells were seeded on a plate and treated with ECyd. Subsequently, the cell culture liquid was exchanged. The profile of cell growth thereafter was obtained through staining with Crystal Violet.

In another data set the test system is cancer patients. The conditions noted are these: rapid intravenous injection, once every three weeks or once a week for three weeks and one week rest; cited from earlier work.
The mark [5] stands for this setting: rapid intravenous administration once every three weeks, 6.31 mg/m^2.

With `C#C[C@@]1(O)[C@@H](CO)O[C@@H](n2ccc(N)nc2=O)[C@@H]1O` [ECyd, 1-(3-C-Ethynyl-β-D-ribopentofuranosyl)cytosine], in data set [1] (24-hour continuous intravenous administration once every three weeks, 2.80 mg/m^2 to 5.48 mg/m^2), the peripheral neurotoxicity result is listed as “no peripheral neurotoxicity was observed”. Also, in data set [1] (rapid intravenous administration once every three weeks, 2.81 mg/m^2), the therapeutic effect entry is “no therapeutic effect was observed”. For the same molecule, the “cases exhibiting peripheral neurotoxicity” value in data set [1] (rapid intravenous administration once every three weeks, 2.81 mg/m^2, two of the three cases) was 66%; in data set [1] (setting [5]), “two of the three cases”; in data set [2] (4-hour continuous intravenous administration, 1.30 mg/m^2, one of the three cases), 33%; in data set [2] (rapid intravenous administration, 1.32 mg/m^2, one of the three cases), 33%. The “therapeutic efficacy (SD or higher)” value in data set [1] (setting [5]) is given as “two of the three cases”; in data set [2] (4-hour continuous intravenous administration, 1.30 mg/m^2), 66%; in data set [2] (rapid intravenous administration, 1.32 mg/m^2), “no therapeutic efficacy (SD or higher) was observed”. For the same molecule, the IC80 worked out at 80 nM in data set [3] (Rattus norvegicus, PC-12, PC12 cells, contact for 100 hours) and 80 nM in data set [4] (Homo sapiens, A549 cells, contact for 100 hours). Also, the “growth of PC12 cells after ECyd contact” value in data set [3] (contact time of 0.5 hours, day 6) was “virtually unrestored”; in data set [3] (contact times of 25 and 100 hours), “restored”. Further, in data set [4] (contact times of 0.5 to 100 hours, constant AUC, day 6), the “growth of A549 cells after ECyd contact” value was “virtually unrestored”. The dose-limiting toxicity result in the data set with cancer patients was “peripheral neurotoxicity was observed as a dose-limiting toxicity”.

(Values after US8642572B2, “Cytidine derivative-containing antitumor agent for continuous intravenous administration” (Taiho Pharmaceutical Co., Ltd., priority 2007, dated 2014).)
